Source: patent US12071411B2, “Inhibitors of HIF-2α and methods of use thereof” (ARCUS BIOSCIENCES, INC., priority 2021, dated 2024)

Legend:
HIF-2α [1] = target: T1, HIF-2α (Homo sapiens, UniProt Q99814); assay: HIF-2α Luciferase Reporter Assay (serum free) in HIF-Luc-786-0 cells; type: cell-based; settings: Opti-MEM, 786-0 reporter cells, 20 hours incubation
Outline: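 786-0 cells stably transduced with HIF luciferase reporter, 20,000 cells/well in serum-free Opti-MEM, compounds (50 uM downward, 1% DMSO) 20 h at 37 °C. ONE-Glo luminescence normalized to DMSO and no-cell controls; IC50 from four-parameter fit.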

HIF-2α [2] = target: T1, HIF-2α; assay: HIF-2α Luciferase Reporter Assay (serum), HRE-luciferase 786-0 cells in 100% human serum; type: cell-based; settings: for IC50: 100% human serum, 786-0 reporter cells, overnight incubation, read-out: Serum Potency; for Serum Shift (approximate): ratio of IC50 in 100% serum to IC50 in serum free conditions
Outline: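 786-0 cells stably expressing an HRE-luciferase reporter were plated and rested 3 h. They were then treated overnight at 37 °C with compound diluted in 100% human serum. Serum was replaced with Opti-MEM, ONE-Glo luminescence was read, and IC50 came from a 4-parameter logistic fit.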

[3] = target: T2, Biotin tagged HIF-2α protein containing PAS-B domain (240-350) (Homo sapiens, UniProt Q99814); assay: HIF-2α Scintillation Proximity Assay (SPA) binding assay; settings: 50 nM HIF-2α protein, 25 nM 3H-tracer, 2% DMSO
T2 construct: Biotin tagged HIF-2α protein containing PAS-B domain (240-350) was prepared and purified in-house; made in house
Description: HIF-2α Scintillation Proximity Assay (SPA) Binding Assay:
Biotin tagged HIF-2α protein containing PAS-B domain (240-350) was prepared and purified in-house.
Compounds solubilized in DMSO were dispensed into a white 384-well polystyrene non-binding flat clear bottom plate (Greiner Bio-One, Cat #781903) using an HP D300 dispenser. Ten microliters of biotinylated HIF-2α protein in buffer (25 mM Tris-HCl, pH 7.4, 150 mM NaCl, 0.15% BSA and 0.001% Tween 20) was added to the compound wells and allowed to incubate for 1 hour at room temperature. Ten microliters of SPA bead mix were added to the wells and incubated for an additional 45 minutes, followed by 10 ul of ^3H-tracer solution. Final assay conditions comprised 50 nM HIF-2α protein, 25 nM radiolabeled tracer and 3 ug beads per well with compounds in 2% DMSO. The plate was read using a MicroBeta Microplate Counter (PerkinElmer) for luminescence detection. The IC50 values of the test compounds were determined from compound dose response curves fitted using a standard four parameter fit equation and are reported in Table 2.

T2 sequence (Q99814 240-350): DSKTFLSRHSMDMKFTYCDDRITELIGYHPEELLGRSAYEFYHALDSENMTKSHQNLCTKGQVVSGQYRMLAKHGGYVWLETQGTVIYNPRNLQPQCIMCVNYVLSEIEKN
T1 sequence (Q99814 whole entry): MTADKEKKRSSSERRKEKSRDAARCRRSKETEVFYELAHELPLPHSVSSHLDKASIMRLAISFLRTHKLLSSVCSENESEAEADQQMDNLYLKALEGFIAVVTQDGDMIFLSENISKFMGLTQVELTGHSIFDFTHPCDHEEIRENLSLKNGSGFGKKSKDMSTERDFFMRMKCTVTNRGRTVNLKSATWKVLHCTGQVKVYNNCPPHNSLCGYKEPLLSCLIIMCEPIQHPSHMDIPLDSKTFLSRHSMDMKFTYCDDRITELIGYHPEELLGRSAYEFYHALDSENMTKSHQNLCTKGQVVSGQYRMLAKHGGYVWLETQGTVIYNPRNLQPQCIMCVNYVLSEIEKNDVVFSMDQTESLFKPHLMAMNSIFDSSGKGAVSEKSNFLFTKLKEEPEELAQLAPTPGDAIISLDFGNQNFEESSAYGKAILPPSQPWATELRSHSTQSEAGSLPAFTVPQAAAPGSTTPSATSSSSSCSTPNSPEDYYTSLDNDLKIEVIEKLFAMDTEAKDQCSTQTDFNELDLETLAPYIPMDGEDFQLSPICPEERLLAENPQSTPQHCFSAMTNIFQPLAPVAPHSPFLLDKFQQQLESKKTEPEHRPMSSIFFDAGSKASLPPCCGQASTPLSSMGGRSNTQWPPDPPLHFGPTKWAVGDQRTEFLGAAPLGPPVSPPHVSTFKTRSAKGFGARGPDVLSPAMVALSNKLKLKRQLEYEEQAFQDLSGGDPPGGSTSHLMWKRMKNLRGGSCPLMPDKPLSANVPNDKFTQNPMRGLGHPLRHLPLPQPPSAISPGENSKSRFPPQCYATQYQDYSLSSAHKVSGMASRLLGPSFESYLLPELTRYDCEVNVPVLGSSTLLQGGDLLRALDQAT

SMILES | IC50 (HIF-2α [1]) | IC50 (HIF-2α [2]) | Serum Shift (approximate) (HIF-2α [2]) | IC50 [3]
O[C@H]1c2c(C(F)(F)F)nn(CC3CC3(F)F)c2CCC1(F)F (single isomer, unassigned) [23/24 DIAST-1] | 0.1 to 1 µM | > 1 µM | 6 | 0.1 to 1 µM
O[C@H]1c2c(C(F)(F)F)nn(CC3CC3(F)F)c2CCC1(F)F (single isomer, unassigned) [23/24 DIAST-2] | 0.1 to 1 µM | > 1 µM | 10 | 0.1 to 1 µM
CC(C)(C#N)CCn1nc(C(F)(F)F)c2c1CCC(F)(F)[C@H]2O [Example 1, 4-[(4S)-5,5-Difluoro-4-hydroxy-3-(trifluoromethyl)-6,7-dihydro-4H-indazol-1-yl]-2,2-dimethylbutanenitrile] | > 1 µM | > 1 µM | 2 | 0.1 to 1 µM
O[C@H]1c2c(C(F)(F)F)nn(CC3CC(F)(F)C3)c2CCC1(F)F [Example 2, (4S)-1-[(3,3-difluorocyclobutyl)methyl]-5,5-difluoro-3-(trifluoromethyl)-6,7-dihydro-4H-indazol-4-ol] | 0.1 to 1 µM | > 1 µM | 13 | 0.1 to 1 µM
CC(C#N)CCn1nc(C(F)(F)F)c2c1CCC(F)(F)[C@H]2O (stereo partly drawn) [Example 3, 4-[(4S)-5,5-difluoro-4-hydroxy-3-(trifluoromethyl)-6,7-dihydro-4H-indazol-1-yl]-2-methylbutanenitrile] | 0.1 to 1 µM | 0.1 to 1 µM | 1 | 0.1 to 1 µM
O[C@H]1c2c(C(F)(F)F)nn(CCC3(C(F)(F)F)CC3)c2CCC1(F)F [Example 5, (4S)-5,5-difluoro-3-(trifluoromethyl)-1-[2-[1-(trifluoromethyl)cyclopropyl]ethyl]-6,7-dihydro-4H-indazol-4-ol] | 0.1 to 1 µM | > 1 µM | 18 | 0.1 to 1 µM
O[C@H]1c2c(C(F)(F)F)nn(CCSC(F)(F)F)c2CCC1(F)F [Example 7, (4S)-5,5-difluoro-3-(trifluoromethyl)-1-[2-(trifluoromethylsulfanyl)ethyl]-6,7-dihydro-4H-indazol-4-ol] | < 0.1 µM | 0.1 to 1 µM | 5 | < 0.1 µM
COCCCn1nc(C(F)(F)F)c2c1CCC(F)(F)[C@H]2O [Example 9, (4S)-5,5-difluoro-1-(3-methoxypropyl)-3-(trifluoromethyl)-6,7-dihydro-4H-indazol-4-ol] | > 1 µM |  |  | > 1 µM
O[C@H]1c2c(C(F)(F)F)nn(CC3CC3)c2CCC1(F)F [Example 10, (4S)-1-(cyclopropylmethyl)-5,5-difluoro-3-(trifluoromethyl)-6,7-dihydro-4H-indazol-4-ol] | > 1 µM |  |  | > 1 µM
OC(CCn1nc(C(F)(F)F)c2c1CCC(F)(F)[C@H]2O)C(F)(F)F (stereo partly drawn) [Example 16, (4S)-5,5-difluoro-1-(4,4,4-trifluoro-3-hydroxybutyl)-3-(trifluoromethyl)-6,7-dihydro-4H-indazol-4-ol] | 0.1 to 1 µM | > 1 µM | 22 | 0.1 to 1 µM
O[C@H]1c2c(C(F)(F)F)nn(CCC3CC3(F)F)c2CCC1(F)F (stereo partly drawn) [Example 20, (4S)-1-[2-(2,2-difluorocyclopropyl)ethyl]-5,5-difluoro-3-(trifluoromethyl)-4,5,6,7-tetrahydro-1H-indazol-4-ol] | < 0.1 µM | 0.1 to 1 µM | 7 | < 0.1 µM
O[C@H]1c2c(C(F)(F)F)nn(CCC3(F)COC3)c2CCC1(F)F [Example 21, (4S)-5,5-difluoro-1-[2-(3-fluorooxetan-3-yl)ethyl]-3-(trifluoromethyl)-4,5,6,7-tetrahydro-1H-indazol-4-ol] | 0.1 to 1 µM | > 1 µM | 3 | 0.1 to 1 µM
O[C@H]1c2c(C(F)(F)F)nn(CCC3CC3)c2CCC1(F)F [Example 22, (4S)-1-(2-cyclopropylethyl)-5,5-difluoro-3-(trifluoromethyl)-4,5,6,7-tetrahydro-1H-indazol-4-ol] | 0.1 to 1 µM | > 1 µM | 10 | 0.1 to 1 µM
O[C@H]1c2c(C(F)(F)F)nn(CCOC3CC3(F)F)c2CCC1(F)F (stereo partly drawn) [Example 25, (4S)-1-[2-(2,2-difluorocyclopropoxy)ethyl]-5,5-difluoro-3-(trifluoromethyl)-4,5,6,7-tetrahydro-1H-indazol-4-ol] | > 1 µM |  |  | > 1 µM
O[C@H]1c2c(C(F)(F)F)nn(CCCC(F)F)c2CCC1(F)F [Example 31, (4S)-1-(4,4-difluorobutyl)-5,5-difluoro-3-(trifluoromethyl)-6,7-dihydro-4H-indazol-4-ol] | 0.1 to 1 µM | > 1 µM | 7 | 0.1 to 1 µM
CC(F)(F)CCn1nc(C(F)(F)F)c2c1CCC(F)(F)[C@H]2O [Example 32, (4S)-1-(3,3-difluorobutyl)-5,5-difluoro-3-(trifluoromethyl)-6,7-dihydro-4H-indazol-4-ol] | < 0.1 µM | 0.1 to 1 µM | 10 | 0.1 to 1 µM
O[C@H]1c2c(C(F)(F)F)nn(CCC(F)(F)F)c2CCC1(F)F [Example 33, (4S)-5,5-difluoro-3-(trifluoromethyl)-1-(3,3,3-trifluoropropyl)-6,7-dihydro-4H-indazol-4-ol] | 0.1 to 1 µM | > 1 µM | 9 | 0.1 to 1 µM
O[C@H]1c2c(C(F)(F)F)nn(C3CCC(F)(F)CC3)c2CCC1(F)F [Example 36, (4S)-1-(4,4-difluorocyclohexyl)-5,5-difluoro-3-(trifluoromethyl)-6,7-dihydro-4H-indazol-4-ol] | 0.1 to 1 µM |  |  | 0.1 to 1 µM
O[C@H]1c2c(C(F)(F)F)nn([C@H]3CC[C@H](C(F)(F)F)CC3)c2CCC1(F)F [Example 37, (4S)-5,5-difluoro-3-(trifluoromethyl)-1-[4-(trifluoromethyl)cyclohexyl]-6,7-dihydro-4H-indazol-4-ol] | > 1 µM |  |  | > 1 µM
CC(CCn1nc(C(F)(F)F)c2c1CCC(F)(F)[C@H]2O)C(F)(F)F (stereo partly drawn) [Example 38, (4S)-5,5-difluoro-3-(trifluoromethyl)-1-(4,4,4-trifluoro-3-methylbutyl)-6,7-dihydro-4H-indazol-4-ol] | 0.1 to 1 µM | 0.1 to 1 µM | 8 | < 0.1 µM
O[C@H]1c2c(C(F)(F)F)nn(C[C@H]3C[C@H](F)C3)c2CCC1(F)F [Example 45, (4S)-5,5-difluoro-1-[(3-fluorocyclobutyl)methyl]-3-(trifluoromethyl)-6,7-dihydro-4H-indazol-4-ol] | > 1 µM |  |  | 0.1 to 1 µM
CO[C@H]1c2c(C(F)(F)F)nn(CCCC(F)(F)F)c2CCC1(F)F [Example 47, (4S)-5,5-difluoro-4-methoxy-1-(4,4,4-trifluorobutyl)-3-(trifluoromethyl)-6,7-dihydro-4H-indazole] | > 1 µM |  |  | > 1 µM
CC(CCn1nc(S(C)(=O)=O)c2c1CCC(F)(F)[C@H]2O)C(F)(F)F (stereo partly drawn) [Example 50, (4S)-5,5-difluoro-3-methylsulfonyl-1-(4,4,4-trifluoro-3-methylbutyl)-6,7-dihydro-4H-indazol-4-ol] | > 1 µM |  |  | > 1 µM
